These results are taken from patent EP0441252B1, “Alkaline phosphatase enzymes having improved specific activity for use in indicator reagents” (ABBOTT LABORATORIES, priority 1990, dated 1991).

Holding throughout (assay): Kinetic constants (Km) of purified alkaline phosphatase
Data set [1] deals with E. coli alkaline phosphatase variant pMA116, Lys^328 > Arg / Val^99 > Ala (Escherichia coli, UniProt P00634, form not given/K350R/V121A). The conditions noted are these: Table 1; substrate not given.
Data set [2] addresses E. coli alkaline phosphatase variant pMA115, Asp^101 > Ser (Escherichia coli, UniProt P00634, D123S, form not given). The conditions noted are these: Table 1; substrate not given.
The subject of data set [3] is O=[N+]([O-])c1ccc(OP(=O)(O)O)cc1. Format: biochemical, E. coli. The conditions noted are these: other: Table 1; substrate not given; pH 8.0; 25.0 °C.

E. coli alkaline phosphatase variant pMA116, Lys^328 > Arg / Val^99 > Ala, sequence (P00634 22-471 K350R/V121A): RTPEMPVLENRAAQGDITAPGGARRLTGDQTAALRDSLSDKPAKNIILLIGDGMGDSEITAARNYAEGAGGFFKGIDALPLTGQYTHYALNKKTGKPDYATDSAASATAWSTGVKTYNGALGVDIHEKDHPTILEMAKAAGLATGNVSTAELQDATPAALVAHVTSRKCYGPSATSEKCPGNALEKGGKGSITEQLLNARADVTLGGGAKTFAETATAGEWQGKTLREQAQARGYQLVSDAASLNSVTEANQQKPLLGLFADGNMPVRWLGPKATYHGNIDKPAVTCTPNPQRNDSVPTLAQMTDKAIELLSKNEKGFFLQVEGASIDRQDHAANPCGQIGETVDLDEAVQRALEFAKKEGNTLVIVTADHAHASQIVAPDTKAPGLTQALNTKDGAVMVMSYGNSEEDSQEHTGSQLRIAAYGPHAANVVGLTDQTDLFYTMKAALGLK
E. coli alkaline phosphatase variant pMA115, Asp^101 > Ser, sequence (P00634 22-471 D123S): as the sequence (P00634 22-471 K350R/V121A) above, with A100V, D102S, R329K counted along it

The term Km denotes the concentration of substrate that gives half-maximal velocity. As for `O=[N+]([O-])c1ccc(OP(=O)(O)O)cc1` [pNPP, p-nitrophenyl phosphate], the values for the Km in data set [1] and in data set [2] were 74 µM and 56 µM, respectively.
For the compound “E. coli alkaline phosphatase variant pMA110, Val^377 > Ala / Ser^415 > Gly (Escherichia coli K-12; S437G/V399A)”, in data set [3], the Michaelis-Menten constant (Km) was 23 µM.
